Reference: publication PMC7010361 (ACS chemical biology, 2019)

Molecular target: BRD4 in HeLa cells (Homo sapiens, UniProt O60885)
Test: Western blot analysis of BRD4 degradation
Format: cell-based
Conditions: HeLa cells treated 24 h with varying concentrations; GAPDH loading control

BRD4 degradation (western blot): dose dependent degradation of BRD4
Compound: Cc1ncsc1-c1ccc(CNC(=O)[C@@H]2C[C@@H](O)CN2C(=O)[C@@H](NC(=O)COCCOCCOCCNC(=O)C[C@@H]2N=C(c3ccc(Cl)cc3)c3c(sc(C)c3C)-n3c(C)nnc32)C(C)(C)C)cc1 [MZ1]
